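How tested: cells in 96-well plates exposed to compound for 48 hours at five concentrations. TGI marks complete inhibition of growth.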
Key:
Experiment in all cases: DTP human tumour cell line panel, 48 h
A498 renal = system: A498 renal
SF-295 CNS = system: SF-295 CNS
786-0 renal = system: 786-0 renal
A549 NSCLC = system: A549 NSCLC
HCC-2998 colon = system: HCC-2998 colon
K-562 leukemia = system: K-562 leukemia
SNB-78 CNS = system: SNB-78 CNS
HL-60(TB) leukemia = system: HL-60(TB) leukemia
SF-268 CNS = system: SF-268 CNS
COLO 205 colon = system: COLO 205 colon
U251 CNS = system: U251 CNS
UACC-257 melanoma = system: UACC-257 melanoma
KM20L2 colon = system: KM20L2 colon
DMS 114 small cell lung = system: DMS 114 small cell lung
EKVX NSCLC = system: EKVX NSCLC
RPMI-8226 leukemia = system: RPMI-8226 leukemia
NCI-H23 lung = system: NCI-H23 lung
M14 melanoma = system: M14 melanoma
SN12C renal = system: SN12C renal
SF-539 CNS = system: SF-539 CNS
OVCAR-4 ovarian = system: OVCAR-4 ovarian
SK-MEL-2 melanoma = system: SK-MEL-2 melanoma
OVCAR-5 ovarian = system: OVCAR-5 ovarian
SW-620 colon = system: SW-620 colon
SNB-75 CNS = system: SNB-75 CNS
M19-MEL melanoma = system: M19-MEL melanoma
OVCAR-8 ovarian = system: OVCAR-8 ovarian
UO-31 renal = system: UO-31 renal
UACC-62 melanoma = system: UACC-62 melanoma
IGROV1 ovarian = system: IGROV1 ovarian
NCI-H522 lung = system: NCI-H522 lung
XF 498 CNS = system: XF 498 CNS
SK-MEL-28 melanoma = system: SK-MEL-28 melanoma
SK-MEL-5 melanoma = system: SK-MEL-5 melanoma
LXFL 529 NSCLC = system: LXFL 529 NSCLC
HOP-62 NSCLC = system: HOP-62 NSCLC
KM12 colon = system: KM12 colon
NCI-H460 lung = system: NCI-H460 lung
SNB-19 CNS = system: SNB-19 CNS
OVCAR-3 ovarian = system: OVCAR-3 ovarian
MOLT-4 leukemia = system: MOLT-4 leukemia
HCT-15 colon = system: HCT-15 colon
CCRF-CEM leukemia = system: CCRF-CEM leukemia
NCI-H226 lung = system: NCI-H226 lung
MALME-3M melanoma = system: MALME-3M melanoma
TK-10 renal = system: TK-10 renal
DLD-1 colon = system: DLD-1 colon
HOP-18 NSCLC = system: HOP-18 NSCLC
HOP-92 NSCLC = system: HOP-92 NSCLC
CAKI-1 renal = system: CAKI-1 renal
SK-OV-3 ovarian = system: SK-OV-3 ovarian
ACHN renal = system: ACHN renal
DMS 273 small cell lung = system: DMS 273 small cell lung
MCF7 breast = system: MCF7 breast
NCI/ADR-RES ovarian = system: NCI/ADR-RES ovarian
HT29 colon = system: HT29 colon
HS 578T breast = system: HS 578T breast
PC-3 prostate = system: PC-3 prostate
SR leukemia = system: SR leukemia
DU-145 prostate = system: DU-145 prostate
RXF 393 renal = system: RXF 393 renal
T-47D breast = system: T-47D breast
MDA-N = system: MDA-N
MDA-MB-231 breast = system: MDA-MB-231 breast
MDA-MB-435 = system: MDA-MB-435
BT-549 breast = system: BT-549 breast
LOX IMVI melanoma = system: LOX IMVI melanoma
HCT-116 colon = system: HCT-116 colon

## CCn1c(=O)nc2n(-c3ccccc3)c3ccccc3nc-2c1=O
A498 renal
  TGI: > 100 µM
SF-295 CNS
  TGI: > 100 µM
786-0 renal
  TGI: > 100 µM
A549 NSCLC
  TGI: > 100 µM
HCC-2998 colon
  TGI: 94 µM
K-562 leukemia
  TGI: 61.2 µM
SNB-78 CNS
  TGI: > 100 µM
HL-60(TB) leukemia
  TGI: 38.5 µM
SF-268 CNS
  TGI: 85.1 µM
COLO 205 colon
  TGI: 16 µM
U251 CNS
  TGI: 75.2 µM
UACC-257 melanoma
  TGI: 38.7 µM
KM20L2 colon
  TGI: 85.4 µM
DMS 114 small cell lung
  TGI: 30.3 µM
EKVX NSCLC
  TGI: > 100 µM
RPMI-8226 leukemia
  TGI: > 100 µM
NCI-H23 lung
  TGI: > 100 µM
M14 melanoma
  TGI: 35 µM
SN12C renal
  TGI: 64.8 µM
SF-539 CNS
  TGI: 38.8 µM
OVCAR-4 ovarian
  TGI: 25.9 µM
SK-MEL-2 melanoma
  TGI: 76.3 µM
OVCAR-5 ovarian
  TGI: 66.4 µM
SW-620 colon
  TGI: 86.5 µM
SNB-75 CNS
  TGI: > 100 µM
M19-MEL melanoma
  TGI: 25.2 µM
OVCAR-8 ovarian
  TGI: 67.9 µM
UO-31 renal
  TGI: > 100 µM
UACC-62 melanoma
  TGI: 31.9 µM
IGROV1 ovarian
  TGI: 74.2 µM
NCI-H522 lung
  TGI: > 100 µM
XF 498 CNS
  TGI: 34.5 µM
SK-MEL-28 melanoma
  TGI: > 100 µM
SK-MEL-5 melanoma
  TGI: 22.8 µM
LXFL 529 NSCLC
  TGI: > 100 µM
HOP-62 NSCLC
  TGI: > 100 µM
KM12 colon
  TGI: > 100 µM
NCI-H460 lung
  TGI: > 100 µM
SNB-19 CNS
  TGI: 76 µM
OVCAR-3 ovarian
  TGI: 43.1 µM
MOLT-4 leukemia
  TGI: 40.4 µM
HCT-15 colon
  TGI: 65.4 µM
CCRF-CEM leukemia
  TGI: 72.3 µM
NCI-H226 lung
  TGI: 63.8 µM
MALME-3M melanoma
  TGI: 31.7 µM
TK-10 renal
  TGI: > 100 µM
DLD-1 colon
  TGI: > 100 µM
HOP-18 NSCLC
  TGI: > 100 µM
HOP-92 NSCLC
  TGI: 62.4 µM
CAKI-1 renal
  TGI: > 100 µM
SK-OV-3 ovarian
  TGI: > 100 µM
ACHN renal
  TGI: 68.7 µM
DMS 273 small cell lung
  TGI: 34.7 µM

## COc1ccc(/C=c2/s/c(=C(\C#N)c3nc4ccccc4[nH]3)n(-c3ccccc3)c2=O)cc1
MCF7 breast
  TGI: > 100 µM
A498 renal
  TGI: > 76.5 µM
SF-295 CNS
  TGI: > 100 µM
NCI/ADR-RES ovarian
  TGI: 20.3 µM
HT29 colon
  TGI: 24.7 µM
786-0 renal
  TGI: > 42.1 µM
A549 NSCLC
  TGI: > 100 µM
HCC-2998 colon
  TGI: > 100 µM
K-562 leukemia
  TGI: > 100 µM
HL-60(TB) leukemia
  TGI: > 100 µM
SF-268 CNS
  TGI: > 100 µM
HS 578T breast
  TGI: 22.4 µM
COLO 205 colon
  TGI: > 100 µM
PC-3 prostate
  TGI: 67.3 µM
U251 CNS
  TGI: > 100 µM
SR leukemia
  TGI: > 100 µM
UACC-257 melanoma
  TGI: > 100 µM
KM20L2 colon
  TGI: > 100 µM
DU-145 prostate
  TGI: > 100 µM
DMS 114 small cell lung
  TGI: > 100 µM
EKVX NSCLC
  TGI: > 100 µM
RPMI-8226 leukemia
  TGI: > 100 µM
NCI-H23 lung
  TGI: > 63.5 µM
RXF 393 renal
  TGI: > 100 µM
M14 melanoma
  TGI: > 100 µM
SN12C renal
  TGI: > 100 µM
T-47D breast
  TGI: > 100 µM
SF-539 CNS
  TGI: > 61.5 µM
OVCAR-4 ovarian
  TGI: 28.1 µM
SK-MEL-2 melanoma
  TGI: > 100 µM
OVCAR-5 ovarian
  TGI: > 100 µM
MDA-N
  TGI: > 100 µM
SW-620 colon
  TGI: > 58.9 µM
SNB-75 CNS
  TGI: > 68.8 µM
M19-MEL melanoma
  TGI: > 100 µM
MDA-MB-231 breast
  TGI: 49.5 µM
OVCAR-8 ovarian
  TGI: 51 µM
UO-31 renal
  TGI: > 100 µM
UACC-62 melanoma
  TGI: > 47.5 µM
IGROV1 ovarian
  TGI: > 100 µM
NCI-H522 lung
  TGI: > 100 µM
XF 498 CNS
  TGI: 88.6 µM
SK-MEL-28 melanoma
  TGI: > 100 µM
SK-MEL-5 melanoma
  TGI: > 100 µM
LXFL 529 NSCLC
  TGI: > 100 µM
HOP-62 NSCLC
  TGI: > 54 µM
KM12 colon
  TGI: > 100 µM
MDA-MB-435
  TGI: > 100 µM
NCI-H460 lung
  TGI: > 74.9 µM
BT-549 breast
  TGI: 54.8 µM
SNB-19 CNS
  TGI: > 100 µM
OVCAR-3 ovarian
  TGI: > 75.3 µM
MOLT-4 leukemia
  TGI: > 100 µM
LOX IMVI melanoma
  TGI: > 100 µM
HCT-15 colon
  TGI: > 100 µM
CCRF-CEM leukemia
  TGI: > 100 µM
NCI-H226 lung
  TGI: 92.7 µM
MALME-3M melanoma
  TGI: > 88.6 µM
TK-10 renal
  TGI: > 100 µM
DLD-1 colon
  TGI: > 100 µM
HOP-18 NSCLC
  TGI: 79 µM
HOP-92 NSCLC
  TGI: 37.7 µM
CAKI-1 renal
  TGI: > 100 µM
SK-OV-3 ovarian
  TGI: 71.6 µM
ACHN renal
  TGI: > 100 µM
HCT-116 colon
  TGI: > 55.7 µM
DMS 273 small cell lung
  TGI: > 100 µM
